Test results as given in ChEMBL document CHEMBL1155271, “Synthesis, crystal structures and antibacterial activity studies of aza-derivatives of phytoalexin from cotton plant--gossypol” (2009).
Converted amounts (≈) assume the structure as drawn.

How the values were obtained:
Type in all cases: functional
Bacillus subtilis [1] = experiment: Antimicrobial activity against Bacillus subtilis ATCC 6633 after 18 hrs by twofold dilution technique; conditions: ATCC 6633, 18 h
Micrococcus luteus [2] = experiment: Antimicrobial activity against Micrococcus luteus ATCC 10240 at 400 ug after 18 hrs by disk diffusion method; conditions: ATCC 10240, 18 h, read-out: DIZ
Bacillus subtilis [3] = experiment: Antimicrobial activity against Bacillus subtilis ATCC 6633 at 400 ug after 18 hrs by disk diffusion method; conditions: ATCC 6633, 18 h, read-out: DIZ
Staphylococcus aureus [4] = experiment: Antimicrobial activity against Methicillin susceptible Staphylococcus aureus 207/7 by twofold dilution technique
Bacillus cereus [5] = experiment: Antimicrobial activity against Bacillus cereus ATCC 11778 at 400 ug after 18 hrs by disk diffusion method; conditions: ATCC 11778, 18 h, read-out: DIZ
Staphylococcus aureus [6] = experiment: Antimicrobial activity against Methicillin susceptible Staphylococcus aureus 239/7 by twofold dilution technique
Staphylococcus aureus [7] = experiment: Antimicrobial activity against Staphylococcus aureus NCTC 4163 after 18 hrs by twofold dilution technique; conditions: NCTC 4163, 18 h
Staphylococcus aureus [8] = experiment: Antimicrobial activity against methicillin-resistant Staphylococcus aureus 141/6 by twofold dilution technique
Staphylococcus aureus [9] = experiment: Antimicrobial activity against Staphylococcus aureus ATCC 25923 after 18 hrs by twofold dilution technique; conditions: ATCC 25923, 18 h
Staphylococcus aureus [10] = experiment: Antimicrobial activity against methicillin-resistant Staphylococcus aureus 136/6 by twofold dilution technique
Staphylococcus aureus [11] = experiment: Antimicrobial activity against Methicillin susceptible Staphylococcus aureus 242/7 by twofold dilution technique
Bacillus cereus [12] = experiment: Antimicrobial activity against Bacillus cereus ATCC 11778 after 18 hrs by twofold dilution technique; conditions: ATCC 11778, 18 h
Staphylococcus aureus [13] = experiment: Antimicrobial activity against Staphylococcus aureus ATCC 6538 after 18 hrs by twofold dilution technique; conditions: ATCC 6538, 18 h
Staphylococcus aureus [14] = experiment: Antimicrobial activity against Methicillin susceptible Staphylococcus aureus 237/7 by twofold dilution technique
Staphylococcus aureus [15] = experiment: Antimicrobial activity against Methicillin susceptible Staphylococcus aureus 238/7 by twofold dilution technique
Staphylococcus aureus [16] = experiment: Antimicrobial activity against methicillin-resistant Staphylococcus aureus 146/6 by twofold dilution technique
Staphylococcus aureus [17] = experiment: Antimicrobial activity against methicillin-resistant Staphylococcus aureus 143/6 by twofold dilution technique
Staphylococcus aureus [18] = experiment: Antimicrobial activity against methicillin-resistant Staphylococcus aureus 200/7 by twofold dilution technique
Staphylococcus aureus [19] = experiment: Antimicrobial activity against methicillin-resistant Staphylococcus aureus 218/7 by twofold dilution technique
Staphylococcus aureus [20] = experiment: Antimicrobial activity against methicillin-resistant Staphylococcus aureus 236/7 by twofold dilution technique
Micrococcus luteus [21] = experiment: Antimicrobial activity against Micrococcus luteus ATCC 9341 at 400 ug after 18 hrs by disk diffusion method; conditions: ATCC 9341, 18 h, read-out: DIZ
Staphylococcus aureus [22] = experiment: Antimicrobial activity against Staphylococcus aureus ATCC 25923 at 400 ug after 18 hrs by disk diffusion method; conditions: ATCC 25923, 18 h, read-out: DIZ
Staphylococcus aureus [23] = experiment: Antimicrobial activity against Staphylococcus aureus ATCC 29213 after 18 hrs by twofold dilution technique; conditions: ATCC 29213, 18 h
Staphylococcus aureus [24] = experiment: Antimicrobial activity against methicillin-resistant Staphylococcus aureus 144/6 by twofold dilution technique
Enterococcus hirae [25] = experiment: Antimicrobial activity against Enterococcus hirae ATCC 10541 after 18 hrs by twofold dilution technique; conditions: ATCC 10541, 18 h
Staphylococcus aureus [26] = experiment: Antimicrobial activity against Methicillin susceptible Staphylococcus aureus 208/7 by twofold dilution technique
Micrococcus luteus [27] = experiment: Antimicrobial activity against Micrococcus luteus ATCC 10240 by twofold dilution technique
Enterococcus hirae [28] = experiment: Antimicrobial activity against Enterococcus hirae ATCC 10541 at 400 ug after 18 hrs by disk diffusion method; conditions: ATCC 10541, 18 h, read-out: DIZ
[29] = test system: Staphylococcus epidermidis; experiment: Antimicrobial activity against Staphylococcus epidermidis ATCC 12228 at 400 ug after 18 hrs by disk diffusion method; conditions: ATCC 12228, 18 h, read-out: DIZ
[30] = test system: Staphylococcus epidermidis; experiment: Antimicrobial activity against Staphylococcus epidermidis ATCC 12228 by twofold dilution technique
Micrococcus luteus [31] = experiment: Antimicrobial activity against Micrococcus luteus ATCC 9341 after 18 hrs by twofold dilution technique; conditions: ATCC 9341, 18 h
Staphylococcus aureus [32] = experiment: Antimicrobial activity against Staphylococcus aureus ATCC 29213 at 400 ug after 18 hrs by disk diffusion method; conditions: ATCC 29213, 18 h, read-out: DIZ
Staphylococcus aureus [33] = experiment: Antimicrobial activity against methicillin-resistant Staphylococcus aureus 217/7 by twofold dilution technique
Staphylococcus aureus [34] = experiment: Antimicrobial activity against Methicillin susceptible Staphylococcus aureus 213/7 by twofold dilution technique
Staphylococcus aureus [35] = experiment: Antimicrobial activity against Staphylococcus aureus NCTC 4163 at 400 ug after 18 hrs by disk diffusion method; conditions: NCTC 4163, 18 h, read-out: DIZ
Staphylococcus aureus [36] = experiment: Antimicrobial activity against Methicillin susceptible Staphylococcus aureus 206/7 by twofold dilution technique
Staphylococcus aureus [37] = experiment: Antimicrobial activity against methicillin-resistant Staphylococcus aureus 140/6 by twofold dilution technique
Staphylococcus aureus [38] = experiment: Antimicrobial activity against Staphylococcus aureus ATCC 6538 at 400 ug after 18 hrs by disk diffusion method; conditions: ATCC 6538, 18 h, read-out: DIZ
Staphylococcus aureus [39] = experiment: Antimicrobial activity against Methicillin susceptible Staphylococcus aureus 243/7 by twofold dilution technique
Staphylococcus aureus [40] = experiment: Antimicrobial activity against Methicillin susceptible Staphylococcus aureus 212/7 by twofold dilution technique

| SMILES | MIC (Bacillus subtilis [1]) [µg/mL] | zone of inhibition at 400 µg/disc (Micrococcus luteus [2]) [mm] | zone of inhibition at 400 µg/disc (Bacillus subtilis [3]) [mm] | MIC (Staphylococcus aureus [4]) [µg/mL] | zone of inhibition at 400 µg/disc (Bacillus cereus [5]) [mm] | MIC (Staphylococcus aureus [6]) [µg/mL] | MIC (Staphylococcus aureus [7]) [µg/mL] | MIC (Staphylococcus aureus [8]) [µg/mL] | MIC (Staphylococcus aureus [9]) [µg/mL] | MIC (Staphylococcus aureus [10]) [µg/mL] | MIC (Staphylococcus aureus [11]) [µg/mL] | MIC (Bacillus cereus [12]) [µg/mL] | MIC (Staphylococcus aureus [13]) [µg/mL] | MIC (Staphylococcus aureus [14]) [µg/mL] | MIC (Staphylococcus aureus [15]) [µg/mL] | MIC (Staphylococcus aureus [16]) [µg/mL] | MIC (Staphylococcus aureus [17]) [µg/mL] | MIC (Staphylococcus aureus [18]) [µg/mL] | MIC (Staphylococcus aureus [19]) [µg/mL] | MIC (Staphylococcus aureus [20]) [µg/mL] | further results |
| --- | --- | --- | --- | --- | --- | --- | --- | --- | --- | --- | --- | --- | --- | --- | --- | --- | --- | --- | --- | --- | --- |
| Cc1cc2c(C(C)C)c(O)c(O)c(C=O)c2c(O)c1-c1c(C)cc2c(C(C)C)c(O)c(O)c(C=O)c2c1O [GOSSYPOL] | 100 (≈ 193 µM) | 16 | 15 | 50 (≈ 96.4 µM) | 15 | 25 (≈ 48.2 µM) | 50 (≈ 96.4 µM) | 50 (≈ 96.4 µM) | 25 (≈ 48.2 µM) | 50 (≈ 96.4 µM) | 12.5 (≈ 24.1 µM) | 25 (≈ 48.2 µM) | 12.5 (≈ 24.1 µM) | 25 (≈ 48.2 µM) | 25 (≈ 48.2 µM) | 50 (≈ 96.4 µM) | 50 (≈ 96.4 µM) | 50 (≈ 96.4 µM) | 50 (≈ 96.4 µM) | 50 (≈ 96.4 µM) | zone of inhibition at 400 µg/disc (Micrococcus luteus [21]): 12 mm; zone of inhibition at 400 µg/disc (Staphylococcus aureus [22]): 15 mm; MIC (Staphylococcus aureus [23]): 12.5 µg/mL (≈ 24.1 µM); MIC (Staphylococcus aureus [24]): 50 µg/mL (≈ 96.4 µM); MIC (Enterococcus hirae [25]): 25 µg/mL (≈ 48.2 µM); MIC (Staphylococcus aureus [26]): 50 µg/mL (≈ 96.4 µM); MIC (Micrococcus luteus [27]): 50 µg/mL (≈ 96.4 µM); zone of inhibition at 400 µg/disc (Enterococcus hirae [28]): 14 mm; zone of inhibition at 400 µg/disc [29]: 16 mm; MIC [30]: 100 µg/mL (≈ 193 µM); MIC (Micrococcus luteus [31]): 25 µg/mL (≈ 48.2 µM); zone of inhibition at 400 µg/disc (Staphylococcus aureus [32]): 15 mm; MIC (Staphylococcus aureus [33]): 50 µg/mL (≈ 96.4 µM); MIC (Staphylococcus aureus [34]): 50 µg/mL (≈ 96.4 µM); zone of inhibition at 400 µg/disc (Staphylococcus aureus [35]): 16 mm; MIC (Staphylococcus aureus [36]): 25 µg/mL (≈ 48.2 µM); MIC (Staphylococcus aureus [37]): 50 µg/mL (≈ 96.4 µM); zone of inhibition at 400 µg/disc (Staphylococcus aureus [38]): 14 mm; MIC (Staphylococcus aureus [39]): 25 µg/mL (≈ 48.2 µM); MIC (Staphylococcus aureus [40]): 50 µg/mL (≈ 96.4 µM) |
| COc1ccc2[nH]cc(CCN/C=C3\C(=O)C(O)=C(C(C)C)c4cc(C)c(-c5c(C)cc6c(c5O)/C(=C/NCCc5c[nH]c7ccc(OC)cc57)C(=O)C(O)=C6C(C)C)c(O)c43)c2c1 | 200 (≈ 232 µM) | 15 | 15 | 200 (≈ 232 µM) | 15 | 100 (≈ 116 µM) | 100 (≈ 116 µM) | 100 (≈ 116 µM) | 100 (≈ 116 µM) | 100 (≈ 116 µM) | 50 (≈ 57.9 µM) | 100 (≈ 116 µM) | 50 (≈ 57.9 µM) | 100 (≈ 116 µM) | 100 (≈ 116 µM) | 100 (≈ 116 µM) | 100 (≈ 116 µM) | 100 (≈ 116 µM) | 100 (≈ 116 µM) | 100 (≈ 116 µM) | zone of inhibition at 400 µg/disc (Micrococcus luteus [21]): 11 mm; zone of inhibition at 400 µg/disc (Staphylococcus aureus [22]): 15 mm; MIC (Staphylococcus aureus [23]): 50 µg/mL (≈ 57.9 µM); MIC (Staphylococcus aureus [24]): 200 µg/mL (≈ 232 µM); MIC (Enterococcus hirae [25]): 100 µg/mL (≈ 116 µM); MIC (Staphylococcus aureus [26]): 100 µg/mL (≈ 116 µM); MIC (Micrococcus luteus [27]): 100 µg/mL (≈ 116 µM); zone of inhibition at 400 µg/disc (Enterococcus hirae [28]): 14 mm; zone of inhibition at 400 µg/disc [29]: 15 mm; MIC [30]: 200 µg/mL (≈ 232 µM); MIC (Micrococcus luteus [31]): 100 µg/mL (≈ 116 µM); zone of inhibition at 400 µg/disc (Staphylococcus aureus [32]): 15 mm; MIC (Staphylococcus aureus [33]): 200 µg/mL (≈ 232 µM); MIC (Staphylococcus aureus [34]): 100 µg/mL (≈ 116 µM); zone of inhibition at 400 µg/disc (Staphylococcus aureus [35]): 16 mm; MIC (Staphylococcus aureus [36]): 100 µg/mL (≈ 116 µM); MIC (Staphylococcus aureus [37]): 100 µg/mL (≈ 116 µM); zone of inhibition at 400 µg/disc (Staphylococcus aureus [38]): 16 mm; MIC (Staphylococcus aureus [39]): 100 µg/mL (≈ 116 µM); MIC (Staphylococcus aureus [40]): 100 µg/mL (≈ 116 µM) |
